Reference: article PMC9916685, “Discovery of Small Molecule COX-1 and Akt Inhibitors as Anti-NSCLC Agents Endowed with Anti-Inflammatory Action” (International Journal of Molecular Sciences, 2023)

Experiments:
[1] = biological target: T1, COX-1 (Ovis aries, UniProt P05979); experiment: COX (ovine) colorimetric inhibitor screening assay, COX-1; type: biochemical; details: for IC50: ovine COX-1, colorimetric, triplicate, mean ± SD; for SI (IC50 for COX-1/IC50 for COX-2): selectivity index
T1 construct: purchased Cayman
T1 sequence (P05979 25-600): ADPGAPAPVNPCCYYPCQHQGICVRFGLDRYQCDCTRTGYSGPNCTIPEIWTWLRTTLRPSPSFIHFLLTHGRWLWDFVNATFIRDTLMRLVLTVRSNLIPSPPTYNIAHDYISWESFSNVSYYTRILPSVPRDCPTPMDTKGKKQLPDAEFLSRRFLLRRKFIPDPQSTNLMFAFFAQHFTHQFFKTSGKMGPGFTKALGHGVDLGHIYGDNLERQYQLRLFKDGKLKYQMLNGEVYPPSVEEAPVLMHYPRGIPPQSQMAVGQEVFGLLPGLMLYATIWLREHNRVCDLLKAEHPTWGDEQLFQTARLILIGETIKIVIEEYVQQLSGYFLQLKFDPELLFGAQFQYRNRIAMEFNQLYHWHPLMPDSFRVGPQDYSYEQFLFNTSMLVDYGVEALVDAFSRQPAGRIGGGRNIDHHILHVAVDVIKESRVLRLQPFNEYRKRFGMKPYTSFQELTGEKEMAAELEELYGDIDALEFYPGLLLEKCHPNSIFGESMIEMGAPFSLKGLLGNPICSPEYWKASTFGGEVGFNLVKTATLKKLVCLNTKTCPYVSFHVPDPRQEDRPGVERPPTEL
Method: (§1) COX (ovine) Colorimetric Inhibitor Screening Assay (Cayman, Ann Arbor, MI, USA) was conducted to detect the peroxidase component of COX-1 and COX-2 according to the manufacturer’s instructions. The assay was performed in triplicate. Half maximal inhibitory concentration (IC50) data (µM) were expressed as mean ± SD.

[2] = biological target: T2, COX-2 (Ovis aries, UniProt P79208); experiment: COX (ovine) colorimetric inhibitor screening assay, COX-2; type: biochemical; details: ovine COX-2, colorimetric, triplicate, mean ± SD
T2 construct: purchased Cayman
T2 sequence (P79208 17-603): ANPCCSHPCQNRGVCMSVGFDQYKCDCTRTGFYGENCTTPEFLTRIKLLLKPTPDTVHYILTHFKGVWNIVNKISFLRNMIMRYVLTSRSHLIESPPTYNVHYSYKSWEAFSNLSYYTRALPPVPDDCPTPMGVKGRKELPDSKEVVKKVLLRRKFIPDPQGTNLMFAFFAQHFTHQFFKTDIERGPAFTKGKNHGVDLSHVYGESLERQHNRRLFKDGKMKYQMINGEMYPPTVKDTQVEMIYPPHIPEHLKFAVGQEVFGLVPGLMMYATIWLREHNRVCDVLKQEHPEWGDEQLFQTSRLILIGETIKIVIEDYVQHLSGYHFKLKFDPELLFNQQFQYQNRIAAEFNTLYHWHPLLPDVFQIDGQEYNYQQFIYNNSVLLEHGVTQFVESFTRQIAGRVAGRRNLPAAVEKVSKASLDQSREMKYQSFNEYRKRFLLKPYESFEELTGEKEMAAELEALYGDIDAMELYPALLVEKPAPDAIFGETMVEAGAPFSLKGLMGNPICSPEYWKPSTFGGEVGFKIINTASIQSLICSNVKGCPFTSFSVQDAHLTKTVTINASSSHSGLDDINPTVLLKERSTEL
Method: as §1

[3] = tested on: L929 mouse fibroblast (normal) cells; experiment: MTT cytotoxicity assay, L929 normal cells; type: cell-based; details: MTT, L929 mouse fibroblast cells, mean ± SD
Method: A549 human lung adenocarcinoma and L929 mouse fibroblast cell lines were obtained from American Type Culture Collection (ATCC) (Manassas, VA, USA). Both cell lines were cultured, and drug treatments were carried out as previously reported.
MTT assay was conducted as previously explained in the literature with small modifications. Cisplatin was used as a positive control. The assay was performed in triplicate. IC50 data (µM) were expressed as mean ± SD.

SMILES | IC50 [1] | SI (IC50 for COX-1/IC50 for COX-2) [1] | IC50 [2] | IC50 [3] | melting point
CN1CCN(c2ccc(C=NNC(=O)Cc3c[nH]c4ccccc34)cc2)CC1 [Compound 3d, 2-(1H-Indol-3-yl)-N′-[4-(4-methylpiperazin-1-yl)benzylidene]acetohydrazide] | 78.5 ± 8.5 µM | <0.79 | > 100 µM | 20 ± 1.73 µM | 218 to 220 °C
CC(=NNC(=O)Cc1c[nH]c2ccccc12)c1ccc(S(C)(=O)=O)cc1 [Compound 3f, 2-(1H-Indol-3-yl)-N′-[1-(4-methylsulfonylphenyl)ethylidene]acetohydrazide] | 93.7 ± 6.25 µM | 1.84 | 51 ± 12.7 µM | < 3.9 µM | 204 to 205 °C
O=C(Cc1c[nH]c2ccccc12)NNC(=S)Nc1ccc(-n2cccn2)cc1 [Compound 4e, 4-[4-(1H-Pyrazol-1-yl)phenyl]-1-[2-(1H-indol-3-yl)acetyl]thiosemicarbazide] | > 100 µM | >3.17 | 31.5 ± 2.12 µM | 62.3 ± 7.51 µM | 196 to 198 °C
O=C(Cc1c[nH]c2ccccc12)NNC(=S)Nc1ccc2c(c1)OCO2 [Compound 4f, 4-(1,3-Benzodioxol-5-yl)-1-[2-(1H-indol-3-yl)acetyl]thiosemicarbazide] | > 100 µM | >1.94 | 51.5 ± 0.71 µM | 14 ± 5.29 µM | 168 to 170 °C
O=C(Cc1c[nH]c2ccccc12)NN=Cc1ccc(N2CCCC2)cc1 [Compound 3a, 2-(1H-Indol-3-yl)-N′-[4-(pyrrolidin-1-yl)benzylidene]acetohydrazide] | 10.3 ± 0.35 µM | 0.83 | 12.5 ± 0.71 µM | 17.3 ± 2.08 µM | 302 to 303 °C
CS(=O)(=O)c1ccc(C=NNC(=O)Cc2c[nH]c3ccccc23)cc1 [Compound 3e, 2-(1H-Indol-3-yl)-N′-(4-methylsulfonylbenzylidene)acetohydrazide] | 83.8 ± 6.25 µM | 2.39 | 35 ± 9.9 µM | 85 ± 17.3 µM | 264 to 265 °C
N#Cc1ccc(NC(=S)NNC(=O)Cc2c[nH]c3ccccc23)cc1 [Compound 4c, 4-(4-Cyanophenyl)-1-[2-(1H-indol-3-yl)acetyl]thiosemicarbazide] | > 100 µM | >1.77 | 56.5 ± 4.49 µM | 26.3 ± 3.51 µM | 180 to 182 °C
CC(=NNC(=O)Cc1c[nH]c2ccccc12)c1ccc(N2CCOCC2)cc1 [Compound 3g, 2-(1H-Indol-3-yl)-N′-[1-(4-morpholinophenyl)ethylidene]acetohydrazide] | 51 ± 1 µM | 0.97 | 52.5 ± 0.71 µM | < 3.9 µM | 198 to 199 °C
COc1ccc2[nH]cc(C=NNC(=O)Cc3c[nH]c4ccccc34)c2c1 [Compound 3j, 2-(1H-Indol-3-yl)-N′-[(5-methoxy-1H-indol-3-yl)methylene]acetohydrazide] | > 100 µM | >2.25 | 44.5 ± 6.36 µM | 43 ± 1.73 µM | –
O=C(Cc1c[nH]c2ccccc12)NN=Cc1ccc(N2CCCCC2)cc1 [Compound 3c, 2-(1H-Indol-3-yl)-N′-[4-(piperidin-1-yl)benzylidene]acetohydrazide] | > 100 µM | – | > 100 µM | 21.3 ± 0.58 µM | 265 to 266 °C
O=C(Cc1c[nH]c2ccccc12)NN=Cc1ccc(OCCN2CCOCC2)cc1 [Compound 3h, 2-(1H-Indol-3-yl)-N′-[4-(2-morpholinoethoxy)benzylidene]acetohydrazide] | 38.5 ± 1.5 µM | 0.76 | 50.5 ± 0.7 µM | < 3.9 µM | 132 to 135 °C
O=C(Cc1c[nH]c2ccccc12)NNC(=S)Nc1ccc(OCc2ccccc2)cc1 [Compound 4g, 4-[4-(Benzyloxy)phenyl]-1-[2-(1H-indol-3-yl)acetyl]thiosemicarbazide] | > 100 µM | >1.68 | 59.5 ± 2.12 µM | 14 ± 3.46 µM | 198 to 200 °C
O=C(Cc1c[nH]c2ccccc12)NNC(=S)Nc1ccc(S(=O)(=O)N2CCCCC2)cc1 [Compound 4d, 4-[4-(Piperidin-1-ylsulfonyl)phenyl]-1-[2-(1H-indol-3-yl)acetyl]thiosemicarbazide] | > 100 µM | >1.69 | 59 ± 8.48 µM | 45.7 ± 6.03 µM | 182 to 184 °C
Cn1cc(C=NNC(=O)Cc2c[nH]c3ccccc23)c2ccccc21 [Compound 3i, 2-(1H-Indol-3-yl)-N′-[(1-methyl-1H-indol-3-yl)methylene]acetohydrazide] | 31.2 ± 1.25 µM | <0.31 | > 100 µM | 42.3 ± 0.58 µM | 221 to 224 °C
O=C(Cc1c[nH]c2ccccc12)NNC(=S)Nc1ccc(C(F)(F)F)cc1 [Compound 4b, 4-(4-Trifluoromethylphenyl)-1-[2-(1H-indol-3-yl)acetyl]thiosemicarbazide] | > 100 µM | >1.63 | 61.5 ± 0.71 µM | 22.7 ± 2.08 µM | 184 to 186 °C
